Measurements from article PMC7725459 (Science Advances, 2020).

What was measured:
SARS-CoV-2 M^pro [1] = biological target: T1, SARS-CoV-2 M^pro (Severe acute respiratory syndrome coronavirus 2, UniProt P0DTD1); assay type: biochemical; details: versus GC-376
SARS-CoV-2 HM-M^pro = SARS-CoV-2 HM-M^pro (Severe acute respiratory syndrome coronavirus 2, UniProt P0DTD1); assay type: binding
SARS-CoV-2 M^pro [2] = biological target: T1, SARS-CoV-2 M^pro; assay: Binding to SARS-CoV-2 M^pro using native mass spectrometry; details: 10 μM ligand, 4 mM DTT

`CC(C)C[C@H](NC(=O)OCc1ccccc1)C(=O)N[C@@H](CC(C)C)C(=O)N[C@@H](CC1CCNC1=O)C(=O)C(=O)NC1CC1` (stereo partly drawn) [UAWJ248] was tested, and the “fold more potent than GC-376 (k2/KI)” value (SARS-CoV-2 M^pro [1]) was 3.2 fold, the “ΔTm shift, HM-M^pro construct” value (SARS-CoV-2 HM-M^pro) was 10.01 °C and the “binding to M^pro by native mass spectrometry” value (SARS-CoV-2 M^pro [2]) was “confirmed”.
